Broadly, the IC50 is the concentration needed to halve the response being measured.

The values that follow come from US20060264460A1 (Wyeth, priority 2005, published 2006).

Some results are limits rather than exact numbers.

T1 sequence (P41279 30-398): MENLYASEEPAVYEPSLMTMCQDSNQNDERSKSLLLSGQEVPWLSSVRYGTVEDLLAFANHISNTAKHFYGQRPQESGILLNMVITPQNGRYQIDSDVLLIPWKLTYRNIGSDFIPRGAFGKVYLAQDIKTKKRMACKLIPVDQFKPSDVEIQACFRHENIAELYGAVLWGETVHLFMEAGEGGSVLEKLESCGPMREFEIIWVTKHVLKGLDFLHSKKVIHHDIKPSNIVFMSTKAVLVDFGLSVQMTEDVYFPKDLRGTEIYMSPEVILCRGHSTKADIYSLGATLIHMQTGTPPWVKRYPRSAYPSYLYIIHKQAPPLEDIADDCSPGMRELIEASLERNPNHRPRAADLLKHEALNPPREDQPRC

One test has as its target T1, human Cot/Tpl2 kinase (Homo sapiens, UniProt P41279).
T1 construct: human Cot/Tpl2 kinase construct encoding residues 30-398; 6His (N); made in house; host or cells: Sf9 insect cells, baculovirus system (BD Biosciences)
The experiment in a line: Tpl2/Cot kinase assay: GST-MEK1 phosphorylation detected by ELISA (DELFIA Eu). Type of test: biochemical. The conditions noted are these: 0.4 nM Tpl2, 35 nM GST-MEK1, 50 uM ATP, 1 h at 30° C. As for the experimental part:
Sf9 cells expressing the kinase were lysed in 50 mM NaPhosphate pH=8; 300 mM NaCl; 5 mM imidazole; 0.1 mM EGTA; 25 mM beta-glycerophosphate; 1% TX-100, 1% glycerol; 6 mM beta-mercaptoethanol and protease inhibitors. The lysate was clarified by centrifugation and was loaded onto a Ni-Sepharose column. The column was washed with 50 mM NaPhosphate pH=8; 300 mM NaCl; 15 mM imidazole; 1% glycerol; and 6 mM beta-mercaptoethanol. His-Tpl2 was eluted with 50 mM NaPhosphate pH=8; 300 mM NaCl; 250 mM imidazole; 1% glycerol; and 6 mM beta-mercaptoethanol. The eluted protein was further purified by size exclusion chromatography. Fractions corresponding to monomeric Tpl2 were then used in the assay.
Tpl2/Cot activity was directly assayed using GST-MEK1 as a substrate. GST-MEK1 phosphorylation on serine residues 217 and 221 was detected by ELISA. 0.4 nM Tpl2 was incubated with 35 nM GST-MEK1 in a kinase reaction buffer containing 20 mM MOPS pH=7.2; 50 uM ATP; 20 mM MgCl2; 1 mM DTT; 25 mM β-glycerophosphate; 5 mM EGTA; and 1 mM sodium orthovanadate for 1 h at 30° C. The compounds of the inventions solubilized in 100% DMSO were pre-diluted in assay buffer so that the final concentration of DMSO in the reaction was 1%. The kinase reaction was carried out in 100 ul volume on 96 well plates. The kinase reaction was then stopped with the addition of 100 mM EDTA. […] After a 1 hour incubation at room temperature, the detection plate was washed 4 times with TBST (TBS+0.05% Tween 20) and then incubated for another hour at room temperature with anti phospho-MEK1 antibody (Cell Signaling) 1:1000 in 10 mM MOPS 7.5; 150 mM NaCl; 0.05% Tween 20; 0.1% Gelatin; 0.02% NaN3; and 1% BSA. The detection plate was washed again and incubated for 30 min with DELFIA Europium (Eu) labeled goat anti-rabbit IgG (Perkin-Elmer), 1:4000 in the same buffer used for the primary incubation. After a final wash, Eu detection solution was added to each well and the Eu signal was measured in a Wallac Victor^2 Multilabel Counter. IC50 calculations were performed using the XLfit software package (IDBS, Guildford, UK).
(In general: In an ELISA, binding on a coated surface is turned into a signal by an enzyme label.)
Take `N#Cc1cnc2ccc(NCc3ccc(S(N)(=O)=O)cc3)cc2c1Nc1ccc(F)c(Cl)c1` [Example 121, 4-((4-(3-chloro-4-fluorophenylamino)-3-cyanoquinolin-6-ylamino)methyl)benzenesulfonamide]: the IC50 is 114 nM. Still for that read-out and setting: to `N#Cc1cnc2c(Cl)cc(NCc3ccnc4ccccc34)cc2c1Nc1ccc(F)c(Cl)c1` [Example 278, 8-Chloro-4-[(3-chloro-4-fluorophenyl)amino]-6-[(quinolin-4-ylmethyl)amino]quinoline-3-carbonitrile] belongs 460 nM; to `CN(C)C(=O)c1ccc2cc(CNc3ccc4ncc(C#N)c(Nc5ccc(F)c(Cl)c5)c4c3)[nH]c2c1` [Example 155, 2-((4-(3-chloro-4-fluorophenylamino)-3-cyanoquinolin-6-ylamino)methyl)-N,N-dimethyl-1H-indole-6-carboxamide], 1500 nM. On the same count and under the same terms, next, `Cn1cc(CNc2cc(Br)c3ncc(C#N)c(Nc4ccc(F)c(Cl)c4)c3c2)nn1` [Example 221, 8-bromo-4-(3-chloro-4-fluorophenylamino)-6-((1-methyl-1H-1,2,3-triazol-4-yl)methylamino)quinoline-3-carbonitrile]: 28 nM; `N#Cc1cnc2ccc(NCc3cccnc3)cc2c1Nc1ccc(F)c(Cl)c1` [Example 37, 4-(3-Chloro-4-fluoro-phenylamino)-6-[(pyridin-3-ylmethyl)-amino]-quinoline-3-carbonitrile]: 410 nM; `N#Cc1cnc2c(Cl)cc(NCCn3ccnn3)cc2c1Nc1ccc(F)c(Cl)c1` [Example 211, 8-chloro-4-[(3-chloro-4-fluorophenyl)amino]-6-{[2-(1H-1,2,3-triazol-1-yl)ethyl]amino}quinoline-3-carbonitrile]: 350 nM. In the case of `N#Cc1cnc2ccc(NCc3ccccc3O)cc2c1Nc1ccc(F)c(Cl)c1` [Example 55, 4-(3-Chloro-4-fluoro-phenylamino)-6-(2-hydroxy-benzylamino)-quinoline-3-carbonitrile], 1800 nM corresponded to half-maximal inhibition (IC50).

Regarding `N#Cc1cnc2cc(OCCCN3CCOCC3)c(NCc3cnc[nH]3)cc2c1Nc1ccc(F)c(Cl)c1` [Example 159, 6-((1H-imidazol-5-yl)methylamino)-4-(3-chloro-4-fluorophenylamino)-7-(3-morpholinopropoxy)quinoline-3-carbonitrile], the IC50 amounted to 9200 nM. Same read-out and setting: to `CS(=O)(=O)c1cc(NCc2cnc[nH]2)cc2c(Nc3ccc(F)c(Cl)c3)c(C#N)cnc12` [Example 286, 4-[(3-chloro-4-fluorophenyl)amino]-6-[(1H-imidazol-5-ylmethyl)amino]-8-(methylsulfonyl)quinoline-3-carbonitrile] belongs 190 nM; to `Cc1cc(CNc2ccc3ncc(C#N)c(Nc4ccc(F)c(Cl)c4)c3c2)n[nH]1` [Example 31, 4-(3-Chloro-4-fluoro-phenylamino)-6-[(5-methyl-1 H-pyrazol-3-ylmethyl)-amino]-quinoline-3-carbonitrile], 110 nM. Same read-out and setting: to `CC(C)N1CCCC(n2cc(CNc3cc(Cl)c4ncc(C#N)c(Nc5ccc(F)c(Cl)c5)c4c3)nn2)CC1` (centres unmarked) [Example 331, 8-chloro-4-[(3-chloro-4-fluorophenyl)amino]-6-({[1-(1-isopropylazepan-4-yl)-1H-1,2,3-triazol-4-yl]methyl}amino)quinoline-3-carbonitrile] belongs 8.2 nM.

As to “4-(3-Chloro-4-fluoro-phenylamino)-6-[(tetrahydro-furan-2-ylmethyl)-amino]-quinoline-3-carbonitrile [Example 41]”, the half-inhibitory concentration (IC50) was found to be 2200 nM.

The test is the same for the next values; noted with them: Table 2; Tpl2/Cot kinase, GST-MEK1 substrate, 50 uM ATP.
Regarding `CN(C)CCCn1cc(CNc2cc(Cl)c3ncc(C#N)c(Nc4ccc(F)c(Cl)c4)c3c2)nn1` [Example 514], the midpoint of inhibition, the IC50, lay at 39 nM. `N#Cc1cnc2c(Cl)cc(NCc3cn(Cc4ccccn4)cn3)cc2c1Nc1ccc(F)c(Cl)c1` [Example 621] came in with an IC50 of 41 nM. `N#Cc1cnc2ccc(NCCN3CCOCC3)cc2c1Nc1ccc(Cc2ccccc2)cc1` [Example 391] yielded an IC50 of 26 nM. On the same count and under the same terms, next, `N#Cc1cnc2ccc(NCc3ccccn3)cc2c1Nc1ccccc1` [Example 361]: 250 nM; `CC(C)(C)OC(=O)N1CCCN(CCCn2cc(CNc3cc(Cl)c4ncc(C#N)c(Nc5ccc(F)c(Cl)c5)c4c3)nn2)CC1` [Example 590]: 120 nM. The same measure, in the same setting: next, `CN(C)C(=O)CNc1cc(Cl)c2ncc(C#N)c(Nc3ccc(F)c(Cl)c3)c2c1` [Example 474]: 1700 nM; `Cc1[nH]c(C2CCCC2)nc1CNc1cc(Cl)c2ncc(C#N)c(Nc3ccc(F)c(Cl)c3)c2c1` [Example 441]: 1900 nM; `N#Cc1cnc2c(Br)cc(NCc3cc(-c4ccncc4)[nH]n3)cc2c1Nc1ccc(F)c(Cl)c1` [Example 455]: 13500 nM. Consider `Cc1cc(CNc2ccc3ncc(C#N)c(Nc4ccc(F)c(Cl)c4)c3c2)n[nH]1` [Example 385], for which inhibition was half-maximal at 110 nM (IC50).

`N#Cc1cnc2c(Br)cc(N(Cc3cn(CCN4CCOCC4)nn3)Cc3cn(CCN4CCOCC4)nn3)cc2c1Nc1ccc(F)c(Cl)c1` [Example 477]: the IC50 is over 40000 nM. The same measure, in the same setting: to `N#Cc1cnc2ccc(NC3CCN(Cc4ccccc4)CC3)cc2c1Nc1ccc(F)c(Cl)c1` [Example 378] belongs 1700 nM. The compound `CN(C)c1cccc(Nc2c(C#N)cnc3ccc(NCCN4CCOCC4)cc23)c1` [Example 354] returned an IC50 of over 10000 nM. Still for that read-out and setting: to `N#Cc1cnc2ccc(NCCN3CCOCC3)cc2c1Nc1ccc(Sc2ccccc2)c(Cl)c1` [Example 353] belongs 470 nM; to `N#Cc1cnc2c(C(F)(F)F)cc(N)cc2c1Nc1ccc(F)c(Cl)c1` [Example 394], 5800 nM. The compound `N#Cc1cnc2c(Br)cc(NCc3cncn3O)cc2c1Nc1ccc(F)c(Cl)c1` [Example 436] showed an IC50 of 150 nM. `N#Cc1cnc2ccc(NCCN3CCOCC3)cc2c1Nc1cccc(C(F)(F)F)c1` [Example 342] returned an IC50 of over 10000 nM.

Still in this test, the particulars now being: Tpl2/Cot kinase, GST-MEK1 substrate, 50 uM ATP.
`CC(=O)N1CCC(CCn2cc(CNc3cc(Cl)c4ncc(C#N)c(Nc5ccc(F)c(Cl)c5)c4c3)nn2)CC1` [Example 832] gave an IC50 of 1.2 nM. `Cn1cnc(CNc2cc(Br)c3ncc(C#N)c(Nc4ccc(F)c(Cl)c4)c3c2)n1` [Example 664] displayed an IC50 of 200 nM. As for `N#Cc1cnc2c(Br)cc(NCc3cn(CC4CCCNC4)nn3)cc2c1Nc1ccc(F)c(Cl)c1` (centres unmarked) [Example 718], the IC50 is 33 nM.

`COCCCNC(=O)CNc1cc(Cl)c2ncc(C#N)c(Nc3ccc(F)c(Cl)c3)c2c1` [Example 779]: inhibition was half-maximal at 230 nM (IC50).

On to `CN(C)C(=O)N1CCC[C@H]1Cn1cc(CNc2cc(Cl)c3ncc(C#N)c(Nc4ccc(F)c(Cl)c4)c3c2)nn1` [Example 900], for which half-maximal inhibition (IC50) required 0.5 nM. As to `N#Cc1cnc2c(Br)cc(NCc3cnc4ccccn34)cc2c1Nc1ccc(F)c(Cl)c1` [Example 701], inhibition was half-maximal at 280 nM (IC50). The same measure, in the same setting: to `CN1CCC(CNc2cc(Cl)c3ncc(C#N)c(Nc4ccc(F)c(Cl)c4)c3c2)CC1` [Example 849] belongs 1910 nM; to `CCNC(=O)N1CCC[C@H]1Cn1cc(CNc2cc(Cl)c3ncc(C#N)c(Nc4ccc(F)c(Cl)c4)c3c2)nn1` [Example 902], 0.5 nM; to `N#Cc1cnc2c(Cl)cc(NCc3nc[nH]n3)cc2c1Nc1ccc(F)c(Cl)c1` [Example 666], 100 nM.

The test is the same for the next values; noted with them: Tpl2/Cot kinase, GST-MEK1 substrate, 50 uM ATP, 1 h at 30° C.; Table 2.
`CC(C)(C)OC(=O)N1CCN(CCn2cc(CNc3cc(Cl)c4ncc(C#N)c(Nc5ccc(F)c(Cl)c5)c4c3)nn2)CC1` [Example 957]: the IC50 was over 3000 nM. Still for that read-out and setting: next, `N#Cc1cnc2ccc(NCc3cn(CCN4CCCCCC4)nn3)cc2c1NC1CCCCC1` [Example 970]: 510 nM; `CN(C)CCn1cc(CNc2ccc3ncc(C#N)c(NC4CCCCC4)c3c2)nn1` [Example 969]: 380 nM. `CC(C)N1CCC(n2cc(CNc3cc(Cl)c4ncc(C#N)c(NC5CCOCC5)c4c3)nn2)CC1` [Example 1000] showed an IC50 of 480 nM. On to `N#Cc1cnc2c(Cl)cc(NCc3cn(C4CCN(CC(F)(F)C(F)(F)F)CC4)nn3)cc2c1Nc1ccc(F)c(Cl)c1` [Example 1017], for which the IC50 was determined as 1040 nM. Same read-out and setting: to `N#Cc1cnc2c(Cl)cc(NCc3cn(C4CCCN(C5CCC5)CC4)nn3)cc2c1Nc1ccc(F)c(Cl)c1` (centres unmarked) [Example 1030] belongs 12 nM; to `CN1CCCC1CCn1cc(CNc2cc(Cl)c3ncc(C#N)c(NC4CCCCCC4)c3c2)nn1` (centres unmarked) [Example 947], 700 nM.
